From patent publication US20220226484A1, “THERAPEUTIC PEPTIDES” (COHBAR, INC., priority 2019, published 2022) come the findings set out here.

Data set [1] has as its system SH-SY5Y Neuroblastoma Cells. The data set can be described thus: ATP levels (CellTiter-Glo). The format is cell-based, human. To be noted: staurosporine 1 μM. As for the experimental part: The effect of the peptides on cellular metabolism can be assessed using an assay of ATP levels in cultured cells such as human neuroblastoma cells. Peptides were initially prepared as 10 mM stock in DMSO and used at a final concentration of 10 μM (0.1% DMSO). […] CellTiter-Glo® Assay kit was purchased from Promega. SH-SY5Y human bone marrow neuroblastoma cell line was purchased from American Type Culture Collection (Manassas, Va.) and licensed from Memorial Sloan-Kettering Cancer Center (New York, N.Y.). SH-SY5Y cells were grown in DMEM/F12 medium supplemented with 10% FBS with 100 IU/ml penicillin and 100 μg/ml streptomycin. Cultures were maintained at 37° C. in a humidified atmosphere of 5% CO2/95% air. SH-SY5Y cells were seeded at 30,000 cells per well on 96-well plates. […] ATP levels were determined using a CellTiter-Glo Assay kit (Promega) according to the manufacturer's instructions. Luminescence for each sample well on the plate was measured using a Cytation 3 plate reader (BioTek, Winooski, Vt.). Activity was calculated relative to 0.1% DMSO treated control. The relative standard deviation of the result for the 0.1% DMSO treated control was <5%.
On the technique in general: In ATP-based viability assays light output follows the ATP content of the culture.

Data set [2] is described as follows: Cell viability, PrestoBlue Assay. It is filed as cell-based, human. The settings on record: human; read-out: Cell viability, % of the background corrected DMSO control value. As for the experimental part:
The effect of the peptides on cell viability can be assessed in cultured cells using suitable assay of viability such as the PrestoBlue® assay (Thermo Fisher Scientific, Waltham, Mass.). Peptides were initially prepared as 10 mM stock in DMSO and tested at a final concentration of 10 μM (0.1% DMSO). […] PrestoBlue Assay Reagent was purchased from Thermo Fisher Scientific. A172 human brain glioblastoma cell line was purchased from American Type Culture Collection (Manassas, Va.). A172 cells were grown in DMEM supplemented with 10% FBS with 100 IU/ml penicillin and 100 μg/ml streptomycin. Cultures were maintained at 37° C. in a humidified atmosphere of 5% CO2/95% air. A172 cells were seeded at 8,000 cells per well on 96-well plates. […] Cell viability was determined using a PrestoBlue Assay reagent […] according to the manufacturer's instructions. Absorption for each sample well on the plate was measured using a Cytation 3 plate reader at 560 nm and 590 nm (BioTek, Winooski, Vt.). Activity was calculated relative to 0.1% DMSO untreated control. Treatment with 0.1% DMSO alone was used as the cell viability activity control. The relative standard deviation of the DMSO control was <5%.

As a reminder, the viability is a read-out of living cells in per cent, often relative to untreated cells. In the case of `CN[C@@H]1C[C@H]2O[C@@](C)([C@@H]1OC)n1c3ccccc3c3c4c(c5c6ccccc6n2c5c31)C(=O)NC4` [staurosporine, Staurosporine, reference compound], in data set [1], the “ATP levels, % of the 0.1% DMSO treated control value” was less than 5%. In data set [2], the viability at 1 µM was less than 75%.
